Reference: patent US20100137449A1, “SUBSTITUTED 1,3-CYCLOPENTADIONE MULTI-TARGET PROTEIN KINASE MODULATORS OF CANCER, ANGIOGENESIS AND THE INFLAMMATORY PATHWAYS ASSOCIATED THEREWITH” (METAPROTEOMICS, LLC, priority 2007, published 2010)

Tests used:
Assay in all cases: KinaseProfiler Assay
Ron(h) = Ron(h) (Homo sapiens, UniProt Q04912)
CDK6/cydinD3(h) = CDK6/cydinD3(h) (Homo sapiens, UniProt Q00534)
PASK(h) = PASK(h) (Homo sapiens, UniProt Q96RG2)
Fyn(h) = Fyn(h) (Homo sapiens, UniProt P06241)
Src(1-530)(h) = Src(1-530)(h) (Homo sapiens, UniProt P12931)
ULK2(h) = molecular target: T1, ULK2(h) (Homo sapiens, UniProt Q8IYT8)
T1 sequence (Q8IYT8 1-1036): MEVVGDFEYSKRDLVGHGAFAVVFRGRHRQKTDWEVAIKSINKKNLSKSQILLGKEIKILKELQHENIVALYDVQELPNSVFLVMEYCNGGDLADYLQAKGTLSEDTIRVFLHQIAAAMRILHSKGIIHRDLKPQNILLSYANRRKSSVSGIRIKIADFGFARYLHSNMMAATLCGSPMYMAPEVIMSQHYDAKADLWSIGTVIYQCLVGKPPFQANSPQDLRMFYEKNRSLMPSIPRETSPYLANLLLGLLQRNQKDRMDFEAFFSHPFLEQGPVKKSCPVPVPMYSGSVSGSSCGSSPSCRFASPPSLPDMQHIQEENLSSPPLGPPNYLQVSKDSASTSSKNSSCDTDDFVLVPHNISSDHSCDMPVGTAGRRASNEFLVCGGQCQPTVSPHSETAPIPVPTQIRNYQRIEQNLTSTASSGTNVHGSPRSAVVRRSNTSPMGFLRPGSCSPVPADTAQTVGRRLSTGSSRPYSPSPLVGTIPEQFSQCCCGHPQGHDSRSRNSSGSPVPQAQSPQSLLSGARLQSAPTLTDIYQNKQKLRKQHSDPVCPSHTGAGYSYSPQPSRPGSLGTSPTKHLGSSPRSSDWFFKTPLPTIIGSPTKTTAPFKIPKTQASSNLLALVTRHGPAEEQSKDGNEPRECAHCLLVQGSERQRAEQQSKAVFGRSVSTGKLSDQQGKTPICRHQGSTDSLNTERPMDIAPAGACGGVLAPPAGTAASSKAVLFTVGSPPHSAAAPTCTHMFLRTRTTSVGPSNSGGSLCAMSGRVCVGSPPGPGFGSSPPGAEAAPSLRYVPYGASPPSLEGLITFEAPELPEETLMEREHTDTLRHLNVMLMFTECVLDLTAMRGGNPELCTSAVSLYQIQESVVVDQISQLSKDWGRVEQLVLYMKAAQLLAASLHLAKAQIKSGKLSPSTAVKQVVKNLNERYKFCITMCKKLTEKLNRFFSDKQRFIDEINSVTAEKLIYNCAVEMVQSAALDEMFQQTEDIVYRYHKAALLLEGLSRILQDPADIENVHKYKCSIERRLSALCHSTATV

NEK6(h) = NEK6(h) (Homo sapiens, UniProt Q9HC98)
cKit(D816V)(h) = cKit(D816V)(h) (Homo sapiens, UniProt P10721, D816V)
Arg(m) = Arg(m) (Mus musculus, UniProt Q4JIM5)
CHK2(R145W)(h) = CHK2(R145W)(h) (Homo sapiens, UniProt O96017, R145W)
Sequence of CHK2(R145W)(h) (O96017 whole entry R145W): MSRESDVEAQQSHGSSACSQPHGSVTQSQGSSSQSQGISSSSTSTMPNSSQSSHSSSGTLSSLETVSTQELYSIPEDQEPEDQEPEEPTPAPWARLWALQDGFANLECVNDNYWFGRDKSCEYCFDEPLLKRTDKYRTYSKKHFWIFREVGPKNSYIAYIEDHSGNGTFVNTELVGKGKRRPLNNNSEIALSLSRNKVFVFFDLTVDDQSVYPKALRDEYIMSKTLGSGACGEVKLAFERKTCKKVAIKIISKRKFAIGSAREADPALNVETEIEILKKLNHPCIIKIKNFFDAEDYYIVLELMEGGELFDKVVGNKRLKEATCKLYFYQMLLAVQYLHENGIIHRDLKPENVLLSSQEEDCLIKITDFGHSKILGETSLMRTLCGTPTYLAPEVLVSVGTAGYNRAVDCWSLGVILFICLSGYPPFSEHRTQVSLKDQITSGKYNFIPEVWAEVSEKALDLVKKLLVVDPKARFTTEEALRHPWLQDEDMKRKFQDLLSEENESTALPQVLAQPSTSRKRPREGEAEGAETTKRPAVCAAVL

Sequence of Fyn(h) (P06241 whole entry): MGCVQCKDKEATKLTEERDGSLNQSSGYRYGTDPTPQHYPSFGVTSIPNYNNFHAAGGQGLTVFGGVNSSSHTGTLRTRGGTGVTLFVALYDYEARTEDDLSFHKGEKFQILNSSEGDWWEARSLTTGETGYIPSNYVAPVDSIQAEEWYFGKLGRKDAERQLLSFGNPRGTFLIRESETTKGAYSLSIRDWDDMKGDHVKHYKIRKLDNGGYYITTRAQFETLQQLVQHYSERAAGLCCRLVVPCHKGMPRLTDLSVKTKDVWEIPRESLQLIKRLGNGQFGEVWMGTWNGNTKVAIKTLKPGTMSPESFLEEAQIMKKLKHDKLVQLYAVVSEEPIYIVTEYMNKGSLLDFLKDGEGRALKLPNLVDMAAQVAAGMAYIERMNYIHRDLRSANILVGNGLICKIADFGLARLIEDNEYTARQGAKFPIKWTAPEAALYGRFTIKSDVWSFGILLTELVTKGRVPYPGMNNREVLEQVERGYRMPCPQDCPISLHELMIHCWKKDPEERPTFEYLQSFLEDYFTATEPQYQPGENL
Sequence of NEK6(h) (Q9HC98 whole entry): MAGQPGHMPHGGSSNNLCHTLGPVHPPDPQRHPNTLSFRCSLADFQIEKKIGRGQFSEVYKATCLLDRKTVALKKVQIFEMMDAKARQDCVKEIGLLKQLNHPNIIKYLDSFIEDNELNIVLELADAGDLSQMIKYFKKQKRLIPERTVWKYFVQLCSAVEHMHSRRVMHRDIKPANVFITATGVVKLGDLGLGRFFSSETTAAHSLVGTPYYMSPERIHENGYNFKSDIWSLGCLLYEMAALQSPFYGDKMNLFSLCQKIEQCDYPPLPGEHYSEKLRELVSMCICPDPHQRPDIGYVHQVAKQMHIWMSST
Sequence of Arg(m) (Q4JIM5 whole entry): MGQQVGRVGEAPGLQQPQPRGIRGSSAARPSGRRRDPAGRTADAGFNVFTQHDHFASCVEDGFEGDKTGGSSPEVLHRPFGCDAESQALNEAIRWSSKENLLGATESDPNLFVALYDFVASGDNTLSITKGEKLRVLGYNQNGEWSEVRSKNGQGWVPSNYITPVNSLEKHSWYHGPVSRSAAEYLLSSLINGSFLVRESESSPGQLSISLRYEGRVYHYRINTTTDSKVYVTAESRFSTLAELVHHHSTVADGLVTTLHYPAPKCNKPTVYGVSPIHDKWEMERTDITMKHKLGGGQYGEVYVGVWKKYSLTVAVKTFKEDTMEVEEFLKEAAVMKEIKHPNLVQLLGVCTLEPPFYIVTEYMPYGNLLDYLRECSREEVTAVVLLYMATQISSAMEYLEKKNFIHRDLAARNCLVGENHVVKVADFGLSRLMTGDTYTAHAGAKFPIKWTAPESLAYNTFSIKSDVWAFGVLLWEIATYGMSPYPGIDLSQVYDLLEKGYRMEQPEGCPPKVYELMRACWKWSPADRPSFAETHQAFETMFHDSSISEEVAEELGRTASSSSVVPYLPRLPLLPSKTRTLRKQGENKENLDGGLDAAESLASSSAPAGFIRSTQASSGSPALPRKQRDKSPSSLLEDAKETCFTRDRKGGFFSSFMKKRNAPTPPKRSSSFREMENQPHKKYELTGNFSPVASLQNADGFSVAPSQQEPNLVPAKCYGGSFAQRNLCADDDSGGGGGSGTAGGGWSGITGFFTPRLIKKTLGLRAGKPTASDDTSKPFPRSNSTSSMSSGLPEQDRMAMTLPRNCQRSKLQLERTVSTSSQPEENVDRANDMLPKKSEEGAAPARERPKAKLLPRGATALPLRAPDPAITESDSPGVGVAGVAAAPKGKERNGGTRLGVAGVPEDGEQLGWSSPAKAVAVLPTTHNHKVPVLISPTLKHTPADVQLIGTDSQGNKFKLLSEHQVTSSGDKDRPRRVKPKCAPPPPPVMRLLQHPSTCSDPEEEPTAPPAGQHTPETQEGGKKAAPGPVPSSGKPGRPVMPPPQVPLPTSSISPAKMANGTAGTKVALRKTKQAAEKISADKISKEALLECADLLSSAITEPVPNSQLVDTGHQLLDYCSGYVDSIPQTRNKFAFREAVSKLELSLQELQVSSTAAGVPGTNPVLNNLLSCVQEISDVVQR
Sequence of PASK(h) (Q96RG2 whole entry): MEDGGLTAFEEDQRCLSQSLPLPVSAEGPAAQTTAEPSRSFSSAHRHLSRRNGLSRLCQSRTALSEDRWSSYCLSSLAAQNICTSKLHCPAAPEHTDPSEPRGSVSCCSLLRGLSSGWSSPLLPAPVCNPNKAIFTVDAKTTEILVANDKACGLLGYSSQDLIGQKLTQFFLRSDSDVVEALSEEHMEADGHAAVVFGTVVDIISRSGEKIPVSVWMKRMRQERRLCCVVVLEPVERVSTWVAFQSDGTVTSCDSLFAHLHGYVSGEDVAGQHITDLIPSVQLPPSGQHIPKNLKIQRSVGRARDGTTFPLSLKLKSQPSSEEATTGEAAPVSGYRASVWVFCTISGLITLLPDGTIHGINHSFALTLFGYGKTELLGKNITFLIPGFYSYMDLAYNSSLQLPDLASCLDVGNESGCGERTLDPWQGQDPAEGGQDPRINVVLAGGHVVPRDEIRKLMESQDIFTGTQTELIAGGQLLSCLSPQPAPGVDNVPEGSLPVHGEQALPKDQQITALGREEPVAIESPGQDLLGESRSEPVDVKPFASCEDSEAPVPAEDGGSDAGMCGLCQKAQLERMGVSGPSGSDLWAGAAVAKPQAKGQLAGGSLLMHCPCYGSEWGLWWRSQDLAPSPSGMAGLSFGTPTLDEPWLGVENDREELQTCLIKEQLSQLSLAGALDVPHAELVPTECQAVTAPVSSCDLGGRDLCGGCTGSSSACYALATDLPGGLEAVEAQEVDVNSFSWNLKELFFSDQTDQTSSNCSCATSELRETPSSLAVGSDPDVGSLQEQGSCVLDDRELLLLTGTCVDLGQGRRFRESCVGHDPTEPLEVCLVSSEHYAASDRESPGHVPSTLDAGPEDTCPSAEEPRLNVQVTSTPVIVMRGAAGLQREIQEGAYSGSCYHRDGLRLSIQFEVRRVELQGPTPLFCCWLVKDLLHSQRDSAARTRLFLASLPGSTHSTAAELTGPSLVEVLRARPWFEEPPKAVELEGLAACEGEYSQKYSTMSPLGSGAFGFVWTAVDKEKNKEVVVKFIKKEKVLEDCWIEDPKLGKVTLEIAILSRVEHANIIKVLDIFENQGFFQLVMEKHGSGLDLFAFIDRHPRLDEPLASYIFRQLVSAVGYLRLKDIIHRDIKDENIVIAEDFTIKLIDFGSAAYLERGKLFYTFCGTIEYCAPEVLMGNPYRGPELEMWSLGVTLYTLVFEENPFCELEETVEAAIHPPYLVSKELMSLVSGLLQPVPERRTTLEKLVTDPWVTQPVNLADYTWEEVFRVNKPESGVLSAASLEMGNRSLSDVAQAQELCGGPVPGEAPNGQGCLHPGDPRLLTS
Sequence of Src(1-530)(h) (P12931 1-530): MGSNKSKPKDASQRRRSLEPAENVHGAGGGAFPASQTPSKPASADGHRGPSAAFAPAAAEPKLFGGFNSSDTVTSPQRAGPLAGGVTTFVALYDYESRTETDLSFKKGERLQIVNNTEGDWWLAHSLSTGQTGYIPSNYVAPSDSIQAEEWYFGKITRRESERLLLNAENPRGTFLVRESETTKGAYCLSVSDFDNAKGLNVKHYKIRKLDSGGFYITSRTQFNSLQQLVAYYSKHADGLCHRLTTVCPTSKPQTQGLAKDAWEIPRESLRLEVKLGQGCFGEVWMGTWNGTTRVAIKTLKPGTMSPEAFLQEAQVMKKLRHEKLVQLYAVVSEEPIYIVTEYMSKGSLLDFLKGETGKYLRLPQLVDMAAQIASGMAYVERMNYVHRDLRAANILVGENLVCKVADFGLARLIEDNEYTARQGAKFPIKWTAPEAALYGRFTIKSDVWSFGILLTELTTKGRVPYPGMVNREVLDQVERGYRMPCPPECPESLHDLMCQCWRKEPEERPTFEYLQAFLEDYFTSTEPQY
Sequence of CDK6/cydinD3(h) (Q00534 whole entry): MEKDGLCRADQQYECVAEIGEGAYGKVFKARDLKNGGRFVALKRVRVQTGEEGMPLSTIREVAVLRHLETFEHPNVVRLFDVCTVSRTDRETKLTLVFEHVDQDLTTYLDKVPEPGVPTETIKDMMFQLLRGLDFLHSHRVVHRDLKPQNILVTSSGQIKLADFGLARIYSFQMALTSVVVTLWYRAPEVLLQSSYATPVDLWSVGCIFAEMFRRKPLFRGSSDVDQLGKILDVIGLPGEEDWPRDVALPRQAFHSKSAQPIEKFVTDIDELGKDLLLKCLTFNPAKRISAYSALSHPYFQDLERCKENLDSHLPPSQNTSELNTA
Sequence of CDK6/cydinD3(h) (P30281 whole entry partner): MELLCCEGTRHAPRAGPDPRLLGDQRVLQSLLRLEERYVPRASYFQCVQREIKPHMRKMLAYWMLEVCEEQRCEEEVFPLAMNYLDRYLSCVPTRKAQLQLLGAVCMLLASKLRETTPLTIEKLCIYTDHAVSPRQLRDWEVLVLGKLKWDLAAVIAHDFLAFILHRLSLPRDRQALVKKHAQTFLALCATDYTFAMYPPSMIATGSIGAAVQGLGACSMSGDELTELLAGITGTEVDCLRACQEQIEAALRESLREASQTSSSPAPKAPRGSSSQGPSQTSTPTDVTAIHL

Question: `CC(C)CCC(=O)[C@]1(O)C(O)=C(C(=O)C(C)C)C(=O)[C@H]1CCC(C)C` [TH2, tetrahydroiso-cohumulone] was tested. Which kinase inhibition (Ron(h); 1 μg/ml) did it give?
Answer: 123% of control

Question: What about the kinase inhibition (Ron(h); 5 μg/ml) of the same compound?
Answer: 124% of control

Question: What about the kinase inhibition (Ron(h); 25 μg/ml) of the same compound?
Answer: 123% of control

Question: What about the kinase inhibition (Ron(h); 50 μg/ml) of the same compound?
Answer: 116% of control

Question: And the kinase inhibition (Ron(h); 100 μg/ml)?
Answer: 94% of control

Question: And the kinase inhibition (CDK6/cydinD3(h); 1 μg/ml)?
Answer: 120% of control

Question: What about the kinase inhibition (CDK6/cydinD3(h); 5 μg/ml) of the same compound?
Answer: 109% of control

Question: And the kinase inhibition (CDK6/cydinD3(h); 25 μg/ml)?
Answer: 117% of control

Question: What about the kinase inhibition (CDK6/cydinD3(h); 50 μg/ml) of the same compound?
Answer: 105% of control

Question: And the kinase inhibition (CDK6/cydinD3(h); 100 μg/ml)?
Answer: 92% of control

Question: What about the kinase inhibition (PASK(h); 1 μg/ml) of the same compound?
Answer: 71% of control

Question: And the kinase inhibition (PASK(h); 5 μg/ml)?
Answer: 76% of control

Question: And the kinase inhibition (PASK(h); 25 μg/ml)?
Answer: 78% of control

Question: And the kinase inhibition (PASK(h); 50 μg/ml)?
Answer: 80% of control

Question: What about the kinase inhibition (PASK(h); 100 μg/ml) of the same compound?
Answer: 71% of control

Question: What about the kinase inhibition (Fyn(h); 1 μg/ml) of the same compound?
Answer: 103% of control

Question: And the kinase inhibition (Fyn(h); 5 μg/ml)?
Answer: 105% of control

Question: What about the kinase inhibition (Fyn(h); 25 μg/ml) of the same compound?
Answer: 103% of control

Question: And the kinase inhibition (Fyn(h); 50 μg/ml)?
Answer: 105% of control

Question: And the kinase inhibition (Fyn(h); 100 μg/ml)?
Answer: 89% of control

Question: What about the kinase inhibition (Src(1-530)(h); 1 μg/ml) of the same compound?
Answer: 103% of control

Question: What about the kinase inhibition (Src(1-530)(h); 5 μg/ml) of the same compound?
Answer: 105% of control

Question: What about the kinase inhibition (Src(1-530)(h); 25 μg/ml) of the same compound?
Answer: 105% of control

Question: And the kinase inhibition (Src(1-530)(h); 50 μg/ml)?
Answer: 102% of control

Question: And the kinase inhibition (Src(1-530)(h); 100 μg/ml)?
Answer: 75% of control

Question: What about the kinase inhibition (ULK2(h); 1 μg/ml) of the same compound?
Answer: 102% of control

Question: And the kinase inhibition (ULK2(h); 5 μg/ml)?
Answer: 52% of control

Question: What about the kinase inhibition (ULK2(h); 25 μg/ml) of the same compound?
Answer: 77% of control

Question: What about the kinase inhibition (ULK2(h); 50 μg/ml) of the same compound?
Answer: 106% of control

Question: And the kinase inhibition (ULK2(h); 100 μg/ml)?
Answer: 105% of control

Question: And the kinase inhibition (NEK6(h); 1 μg/ml)?
Answer: 103% of control

Question: What about the kinase inhibition (NEK6(h); 5 μg/ml) of the same compound?
Answer: 100% of control

Question: What about the kinase inhibition (NEK6(h); 25 μg/ml) of the same compound?
Answer: 79% of control

Question: And the kinase inhibition (NEK6(h); 50 μg/ml)?
Answer: 67% of control

Question: And the kinase inhibition (NEK6(h); 100 μg/ml)?
Answer: 53% of control

Question: And the kinase inhibition (cKit(D816V)(h); 1 μg/ml)?
Answer: 109% of control

Question: What about the kinase inhibition (cKit(D816V)(h); 5 μg/ml) of the same compound?
Answer: 105% of control

Question: And the kinase inhibition (cKit(D816V)(h); 25 μg/ml)?
Answer: 98% of control

Question: And the kinase inhibition (cKit(D816V)(h); 50 μg/ml)?
Answer: 82% of control

Question: And the kinase inhibition (cKit(D816V)(h); 100 μg/ml)?
Answer: 87% of control

Question: And the kinase inhibition (Arg(m); 1 μg/ml)?
Answer: 100% of control

Question: And the kinase inhibition (Arg(m); 5 μg/ml)?
Answer: 101% of control

Question: What about the kinase inhibition (Arg(m); 25 μg/ml) of the same compound?
Answer: 103% of control

Question: And the kinase inhibition (Arg(m); 50 μg/ml)?
Answer: 88% of control

Question: And the kinase inhibition (Arg(m); 100 μg/ml)?
Answer: 62% of control

Question: What about the kinase inhibition (CHK2(R145W)(h); 1 μg/ml) of the same compound?
Answer: 110% of control

Question: What about the kinase inhibition (CHK2(R145W)(h); 5 μg/ml) of the same compound?
Answer: 112% of control

Question: What about the kinase inhibition (CHK2(R145W)(h); 25 μg/ml) of the same compound?
Answer: 99% of control

Question: And the kinase inhibition (CHK2(R145W)(h); 50 μg/ml)?
Answer: 86% of control

Question: And the kinase inhibition (CHK2(R145W)(h); 100 μg/ml)?
Answer: 80% of control
